For ten molecules, EC50 results are on record in patent publication US10017501B2, “Benzimidazole derivatives as bromodomain inhibitors” (Gilead Sciences, Inc., priority 2013, dated 2018).

Where two headings read alike, the source gives them in different places.

The test system of one assay is MT-4 cells. As to the kind of experiment: MT-4 proliferation assay. Format: cell-based, human. The protocol: MT-4 Proliferation Assay:
Compounds were tested in a standardized high-throughput 384-well assay format. Each compound was serially diluted 3-fold in 100% DMSO in polypropylene 384-well plates using a Biomek FX Workstation, and 0.4 μL compound added to an assay plate containing 40 μL RPMI media. Compounds were arranged in a horizontal pattern, with 10 concentrations per compound, and 8 compounds added per plate. Due to low DMSO tolerability, the final DMSO concentration never exceeded 0.5% (v/v). Each assay plate contained 10 μM Puromycin and 0.5% DMSO in RPMI-1640 as positive and negative controls respectively. MT-4 cells (HTLV-1 transformed, human T lymphoblastoid cells, NIH Aids Reagent program) were added in volumes of 35 μL per well and 2,000 cells per well using a Biotek uFlow Workstation (Biotek, Winooski, Vt.), and the plates subsequently incubated for 5 days at 37° C. in an incubator set at 5% CO2 and 90% humidity.
After 5 days, 22 μL Cell Titer Glo (Promega) was added to the assay plates with a Biotek uFlow Workstation. Plates were subsequently placed on a Perkin Elmer Envision Plate Reader for 5 minutes before the luminescence signal was read.

In assay [1] the test system is c-Myc produced in MM.1S cells. As to the kind of experiment: c-Myc down regulation assay (MSD). Format: cell-based. The following applies: 24 hrs. The protocol: (§1) c-Myc Down Regulation and MM.1S Viability Assays:
An enzyme linked immunosorbent assay using the Meso Scale Diagnostic (MSD) technology was used to detect levels of c-Myc produced in MM.1S cells (ATCC). MM.1S cells were cultured in RPMI-1640 media (Corning), supplemented with 10% FBS (Hyclone), 1% penicillin-streptomycin (Cellgro), 2-mercaptoethanol (Gibco) and seeded onto 384-tissue culture treated filter binding plates (Millipore) at a density of 40K cells/well containing titrations of small molecule inhibitors or DMSO (0.4%) in a volume of […] of media. After an incubation time of 24 hrs, cells were lysed (1× lysis buffer (Thermo) supplemented with protease and phosophatase inhibitor cocktail (Thermo)) and the plates centrifuged (1000 rpm, 1 min) to capture c-Myc on MSD plates coated with a monoclonal c-Myc antibody (Origene). Assay wells were washed (3× Invitrogen wash buffer) and probed with a polyclonal c-Myc antibody (Abcam) and MSD detection antibody solution in order to detect levels of c-Myc on the MSD platform. c-Myc capture was reported in pg/ml based on a standard curve using recombinant c-Myc protein (Prosci). EC50 values were calculated from the fit of the dose-response curves to a four-parameter equation. All EC50 values represent geometric mean values of a minimum of four determinations. These assays generally produced results within 3-fold of the reported mean.

The test system of the next assay is MM.1S cells. The assay is described as follows: MM.1S viability assay (CellTiter Glo). Format: cell-based. To be noted: 72 hr, read-out: MM.1S Cell viability (EC50). The method, then:
as §1
For cell viability in the MM.1S cell line, cells were seeded onto 384-tissue culture treated plates (Greiner) at a density of 60K cells/well containing titrations of small molecule inhibitors or DMSO (0.2%). After 72 hr incubation cells were analyzed for cell viability by addition of CellTiter Glo (Promega) to the assay plates. After 15 min incubation at room temperature the signal from the viable cells was analyzed on an Envision plate reader (Perkin Elmer). EC50 values were calculated from the fit of the dose-response curves to a four-parameter equation. All EC50 values represent geometric mean values of a minimum of four determinations. These assays generally produced results within 3-fold of the reported mean.
(In general: Cellular ATP, detected with luciferase, serves as a proxy for viable cell number.)

The mark [2] stands for this setting: Homo sapiens, MT4, 120 h, Table 2, 5 days, Cell Titer Glo, read-out: MT4 Assay (EC50).

As usually defined, the EC50 is the concentration giving half of the maximal effect.

For `Cc1cccc(C(O)(c2cc(-c3c(C)noc3C)cc3[nH]c(C4CC4)nc23)C2CCCO2)n1` (racemic) [Compound 1020-114, (2-cyclopropyl-6-(3,5-dimethylisoxazol-4-yl)-1H-benzo[d]imidazol-4-yl)(6-methylpyridin-2-yl)(tetrahydrofuran-2-yl)methanol], the EC50 with MT-4 cells (Homo sapiens, MT4, 120 h, read-out: MT4 Assay (EC50, nM)) was found to be 2.5 nM; in assay [1] (Homo sapiens, MM1.S) it was 4.8 nM; with MM.1S cells (Homo sapiens, MM1.S) it was 21.2 nM.
Regarding `Cc1noc(C)c1-c1cc(C(O)(c2ccccn2)c2ncccn2)c2nc(C3CC3)[nH]c2c1` (single isomer, unassigned) [Compound 1020-239, (2-cyclopropyl-6-(3,5-dimethylisoxazol-4-yl)-1H-benzo[d]imidazol-4-yl)(pyridin-2-yl)(pyrimidin-2-yl)methanol], the EC50 in the assay with MT-4 cells (setting [2]) worked out at 14 nM; in assay [1] (Homo sapiens, MM1.S) it was 33.1 nM; in the assay on MM.1S cells (Homo sapiens, MM1.S), 47.5 nM.
Regarding `Cc1noc(C)c1-c1cc(C(O)(c2cccnn2)C2CCCO2)c2nc(C3CC3)[nH]c2c1` (single isomer, unassigned) [Compound 1020-289, (2-cyclopropyl-6-(3,5-dimethylisoxazol-4-yl)-1H-benzo[d]imidazol-4-yl)(pyridazin-3-yl)(tetrahydrofuran-2-yl)methanol], the EC50 in the assay on MT-4 cells (Table 2, 5 days, Cell Titer Glo, read-out: MT4 Assay (EC50)) was 4.2 nM; in assay [1], 5.7 nM; in the assay with MM.1S cells it was 17.8 nM.
Regarding `Cc1noc(C)c1-c1cc(C(O)(c2cccnn2)C2CCC(C)(C)O2)c2nc(C3CC3)[nH]c2c1` (single isomer, unassigned) [Compound 1020-298, (2-cyclopropyl-6-(3,5-dimethylisoxazol-4-yl)-1H-benzo[d]imidazol-4-yl)(5,5-dimethyltetrahydrofuran-2-yl)(pyridazin-3-yl)methanol], the EC50 in the assay on MT-4 cells (setting [2]) stood at 5.6 nM; in assay [1] (Homo sapiens, MM1.S) it was 15.3 nM; in the assay with MM.1S cells (Homo sapiens, MM1.S), 16.9 nM.
Taken in the same sequence, the figures for `Cc1noc(C)c1-c1cc(C(O)(c2nccs2)c2nccs2)c2nc(C3CC3)[nH]c2c1` [Compound 1020-103, (2-cyclopropyl-6-(3,5-dimethylisoxazol-4-yl)-1H-benzo[d]imidazol-4-yl)di(thiazol-2-yl)methanol] were 10 nM, 37.3 nM and 72.8 nM.
Take `Cc1noc(C)c1-c1cc(C(O)(c2ccccn2)c2ccccn2)c2nc(C3CC3)[nH]c2c1` [Compound 1020-104, (2-cyclopropyl-6-(3,5-dimethylisoxazol-4-yl)-1H-benzo[d]imidazol-4-yl)di(pyridin-2-yl)methanol]: the half-maximal effective concentration (EC50) in the assay on MT-4 cells (setting [2]) is 12.6 nM; in assay [1] (Homo sapiens, MM1.S), 51.5 nM; with MM.1S cells (Homo sapiens, MM1.S), 55.5 nM.
`Cc1noc(C)c1-c1cc(C(O)(c2ccccc2)c2cccnc2)c2nc(C3CC3)[nH]c2c1` (stereo not drawn) [Compound 1020-112, (2-cyclopropyl-6-(3,5-dimethylisoxazol-4-yl)-1H-benzo[d]imidazol-4-yl)(phenyl)(pyridin-3-yl)methanol]: the EC50 in the assay on MT-4 cells (setting [2]) amounted to 18.2 nM; in assay [1] (Homo sapiens, MM1.S), 56.7 nM; in the assay with MM.1S cells (Homo sapiens, MM1.S) it was 145 nM.
As to `Cc1noc(C)c1-c1cc(C(O)(c2ccccc2)c2ccccn2)c2nc(C3CC3)[nH]c2c1` (stereo not drawn) [Compound 1020-113, (2-cyclopropyl-6-(3,5-dimethylisoxazol-4-yl)-1H-benzo[d]imidazol-4-yl)(phenyl)(pyridin-2-yl)methanol], the EC50 in the assay with MT-4 cells (setting [2]) was 19.9 nM; in assay [1] (Homo sapiens, MM1.S), 63.1 nM; with MM.1S cells (Homo sapiens, MM1.S), 169 nM.
Taken in the same sequence, the figures for `Cc1noc(C)c1-c1cc(C(O)(c2ccccn2)c2ccccn2)c2nc(C3CC3)[nH]c2c1F` [Compound 1020-224, (2-cyclopropyl-6-(3,5-dimethylisoxazol-4-yl)-7-fluoro-1H-benzo[d]imidazol-4-yl)di(pyridin-2-yl)methanol] were 20.5 nM, 104 nM and 84 nM.
Taken in the same sequence, the figures for `Cc1noc(C)c1-c1cc(C(O)(c2ncccn2)c2ccc(F)cc2F)c2nc(C3CC3)[nH]c2c1` (stereo not drawn) [Compound 1020-257, (2-Cyclopropyl-6-(3,5-dimethylisoxazol-4-yl)-1H-benzo[d]imidazol-4-yl)(2,4-difluorophenyl)(pyrimidin-2-yl)methanol] were 14.2 nM, 55.7 nM and 28.4 nM.
